The values below come from patent US9751890B2, “Heteroaryl derivatives as CFTR modulators” (Vertex Pharmaceuticals Incorporated, priority 2008, dated 2017).

This assay addresses T1, ΔF508-CFTR (Homo sapiens, UniProt P13569, DEL508-508).
T1 construct: expressed in transfected cells
In words: Membrane potential optical assay for ΔF508-CFTR correction (single-addition HTS format). It counts as cell-based. Particulars: NIH3T3 mouse fibroblasts stably expressing ΔF508-CFTR; 16-24 hrs with compound; activation with 10 μM forskolin and 20 μM genistein; read-out: BinnedMaxEfficacy (PercentActivity). An excerpt:
Membrane potential optical methods for assaying ΔF508-CFTR modulation properties of compounds.
The assay utilizes fluorescent voltage sensing dyes to measure changes in membrane potential using a fluorescent plate reader (e.g., FLIPR III, Molecular Devices, Inc.) as a readout for increase in functional ΔF508-CFTR in NIH 3T3 cells. The driving force for the response is the creation of a chloride ion gradient in conjunction with channel activation by a single liquid addition step after the cells have previously been treated with compounds and subsequently loaded with a voltage sensing dye.
To identify small molecules that correct the trafficking defect associated with ΔF508-CFTR; a single-addition HTS assay format was developed. Assay Plates containing cells are incubated for ˜2-4 hours in tissue culture incubator at 37° C., 5% CO2, 90% humidity. Cells are then ready for compound exposure after adhering to the bottom of the assay plates.
The cells were incubated in serum-free medium for 16-24 hrs in tissue culture incubator at 37° C., 5% CO2, 90% humidity in the presence or absence (negative control) of test compound. The cells were subsequently rinsed 3× with Krebs Ringers solution and loaded with a voltage sensing redistribution dye. To activate ΔF508-CFTR, 10 μM forskolin and the CFTR potentiator, genistein (20 μM), were added along with Cl^−-free medium to each well. The addition of Cl^−-free medium promoted Cl^− efflux in response to ΔF508-CFTR activation and the resulting membrane depolarization was optically monitored using voltage sensor dyes.
Bath Solution #1: (in mM) NaCl 160, KCl 4.5, CaCl2 2, MgCl2 1, HEPES 10, pH 7.4 with NaOH.
Chloride-free bath solution: Chloride salts in Bath Solution #1 are substituted with gluconate salts.
NIH3T3 mouse fibroblasts stably expressing ΔF508-CFTR are used for optical measurements of membrane potential. The cells are maintained at 37° C. in 5% CO2 and 90% humidity in Dulbecco's modified Eagle's medium supplemented with 2 mM glutamine, 10% fetal bovine serum, 1×NEAA, β-ME, 1× pen/strep, and 25 mM HEPES in 175 cm^2 culture flasks. For all optical assays, the cells were seeded at ˜20,000/well in 384-well matrigel-coated plates and cultured for 2 hrs at 37° C. before culturing at 27° C. for 24 hrs. for the potentiator assay. For the correction assays, the cells are cultured at 27° C. or 37° C. with and without compounds for 16-24 hours.

Some results are limits rather than exact numbers.

T1 sequence (P13569 with tags, fused parts or gaps DEL508-508): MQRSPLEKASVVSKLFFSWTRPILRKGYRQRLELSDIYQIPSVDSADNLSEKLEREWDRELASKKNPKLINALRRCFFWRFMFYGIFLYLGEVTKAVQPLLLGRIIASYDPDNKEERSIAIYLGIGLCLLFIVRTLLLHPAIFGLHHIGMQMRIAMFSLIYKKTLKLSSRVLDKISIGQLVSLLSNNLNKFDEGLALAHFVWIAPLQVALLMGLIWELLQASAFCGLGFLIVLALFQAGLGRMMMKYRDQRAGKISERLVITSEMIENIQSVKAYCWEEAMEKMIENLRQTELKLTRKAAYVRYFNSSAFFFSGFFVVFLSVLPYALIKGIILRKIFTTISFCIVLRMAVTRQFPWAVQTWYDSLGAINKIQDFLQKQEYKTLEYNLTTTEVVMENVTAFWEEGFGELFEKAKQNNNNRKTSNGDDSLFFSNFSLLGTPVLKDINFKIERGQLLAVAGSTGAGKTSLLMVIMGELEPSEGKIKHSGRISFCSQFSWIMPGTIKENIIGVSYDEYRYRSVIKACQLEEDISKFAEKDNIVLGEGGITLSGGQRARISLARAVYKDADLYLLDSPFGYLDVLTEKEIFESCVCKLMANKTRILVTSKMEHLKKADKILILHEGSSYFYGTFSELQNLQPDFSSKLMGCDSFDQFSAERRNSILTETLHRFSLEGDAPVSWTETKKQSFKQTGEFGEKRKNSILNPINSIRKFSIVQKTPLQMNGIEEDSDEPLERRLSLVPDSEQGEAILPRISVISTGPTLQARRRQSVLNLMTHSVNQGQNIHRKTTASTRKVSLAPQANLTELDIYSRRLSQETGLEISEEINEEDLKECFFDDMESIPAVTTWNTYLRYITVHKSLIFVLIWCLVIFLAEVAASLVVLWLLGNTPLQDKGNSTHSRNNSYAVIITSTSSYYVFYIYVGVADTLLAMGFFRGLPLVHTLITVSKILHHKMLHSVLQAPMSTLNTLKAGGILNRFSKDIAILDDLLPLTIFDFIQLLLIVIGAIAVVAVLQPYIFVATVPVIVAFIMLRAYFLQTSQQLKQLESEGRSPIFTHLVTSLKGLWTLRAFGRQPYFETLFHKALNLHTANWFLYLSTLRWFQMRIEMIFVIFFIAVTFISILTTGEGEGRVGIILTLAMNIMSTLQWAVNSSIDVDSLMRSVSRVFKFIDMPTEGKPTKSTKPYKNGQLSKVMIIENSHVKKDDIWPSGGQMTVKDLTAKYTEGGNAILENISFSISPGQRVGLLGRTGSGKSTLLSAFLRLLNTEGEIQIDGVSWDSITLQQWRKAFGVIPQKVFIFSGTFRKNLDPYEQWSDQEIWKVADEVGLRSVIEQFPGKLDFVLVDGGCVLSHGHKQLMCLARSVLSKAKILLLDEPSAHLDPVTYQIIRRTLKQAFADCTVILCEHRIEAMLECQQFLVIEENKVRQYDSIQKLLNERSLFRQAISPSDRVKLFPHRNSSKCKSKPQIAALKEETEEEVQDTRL

Regarding `O=C(Nc1cnc(Cc2ccccc2Cl)cn1)C1(c2ccc3c(c2)OCO3)CC1` [Compound 1, 1-(benzo[d][1,3]dioxol-5-yl)-N-(5-(2-chlorobenzyl)pyrazin-2-yl)cyclopropanecarboxamide], the Emax was greater than 100%.
On to `COc1ccccc1Nc1cnc(NC(=O)C2(c3ccc4c(c3)OCO4)CC2)cn1` [Compound 2, 1-(benzo[d][1,3]dioxol-5-yl)-N-(5-(2-methoxyphenylamino)pyrazin-2-yl)cyclopropanecarboxamide], for which the Emax is greater than 100%.
For `COc1ccccc1Cc1ccc(NC(=O)C2(c3ccc4c(c3)OCO4)CC2)cn1` [Compound 3], the Emax is greater than 100%.
For the compound `COc1ccccc1Cc1ccc(NC(=O)C2(c3ccc4c(c3)OCO4)CC2)nn1` [Compound 4], the Emax was greater than 100%.
Next, `O=C(Nc1ccc(CC2CCCCC2)nn1)C1(c2ccc3c(c2)OCO3)CC1` [Compound 5, 1-(benzo[d][1,3]dioxol-5-yl)-N-(6-(cyclohexylmethyl)pyridazin-3-yl)cyclopropanecarboxamide]: 25 to 100%; `Cc1ncc(NC(=O)C2(c3ccc4c(c3)OCO4)CC2)cc1-c1cccc(S(=O)(=O)N(C)C)c1` [Compound 6]: 25 to 100%; `O=C(Nc1ccc(-c2ccccc2Cl)nc1)C1(c2ccc3c(c2)OCO3)CC1` [Compound 7, 1-(benzo[d][1,3]dioxol-5-yl)-N-(6-(2-chlorophenyl)pyridin-3-yl)cyclopropanecarboxamide]: greater than 100%.
On to `Cc1ncc(NC(=O)C2(c3ccc4c(c3)OCO4)CC2)cc1-c1ccc(S(=O)(=O)N(C)C)cc1` [Compound 8], for which the Emax was greater than 100%.
As for `Cc1c(NC(=O)C2(c3ccc4c(c3)OC(F)(F)O4)CC2)ccnc1-c1cccc(C(=O)O)c1` [Compound 9], the Emax was 25 to 100%.
Next, `COc1ccc(-c2nc(NC(=O)C3(c4ccc5c(c4)OC(F)(F)O5)CC3)ncc2C)cn1` [Compound 10, 1-(2,2-difluorobenzo[d][1,3]dioxol-5-yl)-N-(4-(6-methoxypyridin-3-yl)-5-methylpyrimidin-2-yl)cyclopropanecarboxamide]: 25 to 100%; `Cc1cnc(NC(=O)C2(c3ccc4c(c3)OC(F)(F)O4)CC2)nc1-c1ccc(C(=O)O)cc1` [Compound 11, 4-(2-(1-(2,2-difluorobenzo[d][1,3]dioxol-5-yl)cyclopropanecarboxamido)-5-methylpyrimidin-4-yl)benzoic acid]: 25 to 100%.
With `O=C(Nc1cnc(Cc2ccccc2)cn1)C1(c2ccc3c(c2)OCO3)CC1` [Compound 12] the figure was greater than 100%; with `O=C(Nc1cncc(Cc2ccccc2Cl)n1)C1(c2ccc3c(c2)OCO3)CC1` [Compound 13], greater than 100%; with `CC(Oc1ccc(Cl)cc1)c1ccnc(NC(=O)C2(c3ccc4c(c3)OCO4)CC2)n1` (stereo not drawn) [Compound 14, 1-(benzo[d][1,3]dioxol-5-yl)-N-(4-(1-(4-chlorophenoxy)ethyl)pyrimidin-2-yl)cyclopropanecarboxamide], greater than 100%.
As for `N#Cc1ccc(NC(=O)C2(c3ccc4c(c3)OCO4)CC2)cn1` [Compound 15, 1-(benzo[d][1,3]dioxol-5-yl)-N-(6-cyanopyridin-3-yl)cyclopropanecarboxamide], the Emax lay within 25 to 100%.
As to `CNC(=O)c1ccc(-c2cc(NC(=O)C3(c4ccc5c(c4)OCO5)CC3)cnc2C)cc1` [Compound 16, 4-(5-(1-(benzo[d][1,3]dioxol-5-yl)cyclopropanecarboxamido)-2-methylpyridin-3-yl)-N-methylbenzamide], the Emax lay in the range of 25 to 100%.
Consider `Cc1ncc(NC(=O)C2(c3ccc4c(c3)OCO4)CC2)cc1-c1cccc(C(N)=O)c1` [Compound 17], for which the Emax is 25 to 100%.
As to `Cc1ccc(S(=O)(=O)c2ncccc2NC(=O)C2(c3ccc4c(c3)OCO4)CC2)cc1` [Compound 18, 1-(benzo[d][1,3]dioxol-5-yl)-N-(2-tosylpyridin-3-yl)cyclopropanecarboxamide], the Emax was greater than 100%.
